# In patent USRE48461E1, “Modulation of androgen receptor expression” (Ionis Pharmaceuticals, Inc., priority 2012, dated 2021):
# Assays:
# LMR20 cells = assay: Proliferation of MDV3100-resistant LMR20 cells (MTT; with R1881 or DHT); assay type: cell-based, human; conditions: 5 days
# Outline: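 Cells were held in phenol red-free medium with charcoal-stripped FBS and given antisense oligonucleotides plus 1 nM R1881 or 10 nM DHT from day 1. Proliferation was read by MTT after 5 days of treatment and reported as percent inhibition against non-treated cells.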
# AR mRNA = AR mRNA levels in LMR20 cells (with/without DHT or R1881); assay type: cell-based, human; conditions: with or without DHT/R1881
# Protocol: LMR20 cells were plated at 1,500 cells per well in phenol red-free medium with CSS.
# TMPRSS2 mRNA = assay: Time-course TMPRSS2 expression in C4-2B cells; assay type: cell-based, human
# Outline: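 C4-2B cells at 1,000/well in complete medium, treated with antisense oligonucleotide; ISIS 549148 as negative control. PSA and TMPRSS2 mRNA measured after 8, 24 and 48 h, given as percent inhibition relative to non-treated cells.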
# C4-2 cells = assay: C4-2 cell proliferation (complete or CSS+DHT medium); assay type: cell-based, human; conditions: 5 days; for Proliferation (% untreated control): C4-2 cells
# Protocol: After a treatment period of 5 days in complete medium or CSS+1 nM DHT medium, the proliferative capacity of the cancer cells was measured with using CellTiter 96® AQueous One Solution or CellTiter-Glo® Cell Proliferation kit (Promega), following the manufacturer's instructions. […] The proliferative capacity of cells cultured in CSS medium without DHT is 17% of untreated control levels.
# full length AR mRNA = assay: Full-length AR RNA in VCaP cells (complete, CSS+DHT medium); assay type: cell-based, human; conditions: RNAiMax, 48 hrs
# Protocol: Cells were plated at 10,000 cells per well. […] After an incubation period of 48 hrs, RNA levels of full length AR, the V7 variant, PSA and TMPRSS2 were measured.
# After an incubation period of 48 hrs, RNA levels of full length AR, the V7 variant, PSA and TMPRSS2 were measured. The data is presented in Tables 108 expressed as percent expression of gene levels compared to the untreated control.
# Cells were plated at 15,000 cells per well and cultured in CSS media for 16 hours. […] After 4 hrs, 1 nM DHT was added. […] After an incubation period of 48 hrs, RNA levels of AR, PSA and TMPRSS2 were measured.
# VCaP cells [1] = assay: VCaP cell proliferation; assay type: cell-based, human; conditions: 5 days; for Proliferation (% untreated control): VCaP cells
# Outline: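 VCaP cells treated 5 days in complete medium or charcoal-stripped serum medium with 1 nM DHT; proliferation read by CellTiter 96 AQueous One or CellTiter-Glo.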
# VCaP cells [2] = assay: VCaP apoptosis (Caspase-Glo 3/7); assay type: cell-based, human; conditions: complete medium, 72 hours; for Apoptosis (% untreated control): VCaP cells
# Protocol: After a treatment period of 72 hours in complete medium, apoptosis of the cancer cells was measured with Caspase-Glo 3/7 assay (Promega). Results are presented in Tables 117 and 118 as percent apoptosis of the cells, relative to non-treated cells.
# MDA-MB-453 tumor = assay: Tumor volume in MDA-MB-453 breast cancer orthotopic model; assay type: in vivo, NSG mice; conditions: Study 2, MDA-MB-453 model, NSG mice, 50 mg/kg s.c. 5 days per week for 2 weeks
# [3] = complete medium or CSS+1 nM DHT
sequence,measurement,setting,value
"TGATTTAATGGTTGCA [ISIS 569236] (cEt/MOE gapmer chemistry, further chemistry not given here) [targets intron 1]",Percent inhibition of LMR20 cell proliferation,"LMR20 cells; CSS + DHT, ASO 0.04 μM",0%
same,Percent inhibition of LMR20 cell proliferation,"LMR20 cells; CSS + DHT, ASO 0.20 μM",10%
same,Percent inhibition of LMR20 cell proliferation,"LMR20 cells; CSS + DHT, ASO 1.0 μM",32%
same,Percent inhibition of LMR20 cell proliferation,"LMR20 cells; CSS + DHT, ASO 5.0 μM",57%
same,Percent inhibition of LMR20 cell proliferation,"LMR20 cells; CSS + R1881, ASO 0.04 μM",0%
same,Percent inhibition of LMR20 cell proliferation,"LMR20 cells; CSS + R1881, ASO 0.20 μM",2%
same,Percent inhibition of LMR20 cell proliferation,"LMR20 cells; CSS + R1881, ASO 1.0 μM",34%
same,Percent inhibition of LMR20 cell proliferation,"LMR20 cells; CSS + R1881, ASO 5.0 μM",61%
same,Percent inhibition of LMR20 cell proliferation,"LMR20 cells; CSS, ASO 0.04 μM",0%
same,Percent inhibition of LMR20 cell proliferation,"LMR20 cells; CSS, ASO 0.20 μM",10%
same,Percent inhibition of LMR20 cell proliferation,"LMR20 cells; CSS, ASO 1.0 μM",0%
same,Percent inhibition of LMR20 cell proliferation,"LMR20 cells; CSS, ASO 5.0 μM",12%
same,LMR20 cell proliferation,"LMR20 cells; in the presence of R1881 or DHT, 0.04-5.0 μM",significantly inhibited MDV3100-resistant prostate cancer cell proliferation in a dose dependent manner more extensively than ISIS 554221
same,AR mRNA levels in LMR20 cells,AR mRNA,"reduced AR mRNA levels in LMR20 cells, treated with or without either AR agonist, in a dose dependent manner relative to the baseline"
same,Percent inhibition of TMPRSS2 expression compared to the control group in 8 hours,TMPRSS2 mRNA; 0.04 μM,0%
same,Percent inhibition of TMPRSS2 expression compared to the control group in 24 hours,TMPRSS2 mRNA; 0.04 μM,10%
same,Percent inhibition of TMPRSS2 expression compared to the control group in 48 hours,TMPRSS2 mRNA; 0.04 μM,22%
same,Percent inhibition of TMPRSS2 expression compared to the control group in 8 hours,TMPRSS2 mRNA; 0.2 μM,0%
same,Percent inhibition of TMPRSS2 expression compared to the control group in 24 hours,TMPRSS2 mRNA; 0.2 μM,32%
same,Percent inhibition of TMPRSS2 expression compared to the control group in 48 hours,TMPRSS2 mRNA; 0.2 μM,57%
same,Percent inhibition of TMPRSS2 expression compared to the control group in 8 hours,TMPRSS2 mRNA; 1 μM,0%
same,Percent inhibition of TMPRSS2 expression compared to the control group in 24 hours,TMPRSS2 mRNA; 1 μM,57%
same,Percent inhibition of TMPRSS2 expression compared to the control group in 48 hours,TMPRSS2 mRNA; 1 μM,70%
same,Percent inhibition of TMPRSS2 expression compared to the control group in 8 hours,TMPRSS2 mRNA; 5.0 μM,0%
same,Percent inhibition of TMPRSS2 expression compared to the control group in 24 hours,TMPRSS2 mRNA; 5.0 μM,66%
same,Percent inhibition of TMPRSS2 expression compared to the control group in 48 hours,TMPRSS2 mRNA; 5.0 μM,75%
same,TMPRSS2 expression,TMPRSS2 mRNA; time course,reduced PSA and TMPRSS2 expression in the cells relative to the control set at the 24 hr and 48 hr time points
same,Proliferation (% untreated control),"C4-2 cells; CSS + DHT medium, 0.04 μM",99 % untreated control
same,Proliferation (% untreated control),"C4-2 cells; CSS + DHT medium, 0.2 μM",99 % untreated control
same,Proliferation (% untreated control),"C4-2 cells; CSS + DHT medium, 1 μM",88 % untreated control
same,Proliferation (% untreated control),"C4-2 cells; CSS + DHT medium, 5.0 μM",51 % untreated control
same,Proliferation (% untreated control),"C4-2 cells; complete medium, 0.04 μM",103 % untreated control
same,Proliferation (% untreated control),"C4-2 cells; complete medium, 0.2 μM",81 % untreated control
same,Proliferation (% untreated control),"C4-2 cells; complete medium, 1 μM",57 % untreated control
same,Proliferation (% untreated control),"C4-2 cells; complete medium, 5.0 μM",58 % untreated control
same,proliferation of C4-2 cells,C4-2 cells; [3],reduced proliferation of the cells in a dose dependent manner compared to the control
same,Percent inhibition of full-length AR,"full length AR mRNA; CSS medium, 1.34 nM",23%
same,Percent inhibition of full-length AR,"full length AR mRNA; CSS medium, 4.0 nM",21%
same,Percent inhibition of full-length AR,"full length AR mRNA; CSS medium, 13.4 nM",38%
same,Percent inhibition of full-length AR,"full length AR mRNA; CSS medium, 40 nM",35%
same,Percent inhibition of full-length AR,"full length AR mRNA; complete medium, 1.34 nM",0%
same,Percent inhibition of full-length AR,"full length AR mRNA; complete medium, 4.0 nM",41%
same,Percent inhibition of full-length AR,"full length AR mRNA; complete medium, 13.4 nM",49%
same,Percent inhibition of full-length AR,"full length AR mRNA; complete medium, 40 nM",74%
same,Proliferation (% untreated control),"VCaP cells [1]; CSS + DHT medium, 1.34 nM",83 % untreated control
same,Proliferation (% untreated control),"VCaP cells [1]; CSS + DHT medium, 4.0 nM",68 % untreated control
same,Proliferation (% untreated control),"VCaP cells [1]; CSS + DHT medium, 13.4 nM",61 % untreated control
same,Proliferation (% untreated control),"VCaP cells [1]; CSS + DHT medium, 40 nM",45 % untreated control
same,Proliferation (% untreated control),"VCaP cells [1]; complete medium, 1.34 nM",98 % untreated control
same,Proliferation (% untreated control),"VCaP cells [1]; complete medium, 4.0 nM",76 % untreated control
same,Proliferation (% untreated control),"VCaP cells [1]; complete medium, 13.4 nM",68 % untreated control
same,Proliferation (% untreated control),"VCaP cells [1]; complete medium, 40 nM",59 % untreated control
same,proliferation of VCaP cells,VCaP cells [1]; [3],reduced proliferation of the cells in a dose dependent compared to the control
same,Apoptosis (% untreated control),VCaP cells [2]; 1.34 nM,176 % untreated control
same,Apoptosis (% untreated control),VCaP cells [2]; 4.0 nM,293 % untreated control
same,Apoptosis (% untreated control),VCaP cells [2]; 13.4 nM,402 % untreated control
same,Apoptosis (% untreated control),VCaP cells [2]; 40 nM,581 % untreated control
same,apoptosis of VCaP cells,VCaP cells [2],increased apoptosis of the cells in a dose dependent compared to the control
same,Tumor volumes,MDA-MB-453 tumor; Day 0,134
same,Tumor volumes,MDA-MB-453 tumor; Day 8,283
same,Tumor volumes,MDA-MB-453 tumor; Day 13,260
same,Tumor volumes,MDA-MB-453 tumor; Day 20,230
same,Tumor volumes,MDA-MB-453 tumor; Day 23,264
same,Tumor volumes,MDA-MB-453 tumor; Day 27,329
same,Tumor volumes,MDA-MB-453 tumor; Day 29,323
